SMILES	logP
CC(=O)OCCNc1ccc(-c2ccncc2)c(C)n1	2.59
Cc1nc(N2CCNCC2)c(C#N)cc1-c1ccccc1	3.15
CC(=O)OCCCOc1ccc(-c2ccncc2)cn1	2.48
CC(=O)OCCNc1ccc(-c2ccncc2)cn1	2
CC(=O)OCCOc1ccc(-c2ccncc2)cn1	1.92
CCOc1ncc(-c2ccncc2)cc1C#N	2.59
CCC(CO)Nc1ncc(-c2ccncc2)cc1C#N (centres undefined)	1.04
CC(O)COc1ncc(-c2ccncc2)cc1C#N (centres undefined)	1.65
COc1nc(C)c(-c2ccncc2)cc1C#N	2.41
O=C(OCCCNc1ccc(-c2ccncc2)cn1)c1ccccc1	4.06
COCCCNc1ncc(-c2ccncc2)cc1C#N	2.03
CCC(=O)OCCNc1ccc(-c2ccncc2)cn1	2.47
Cc1nc(NCCN)c(C#N)cc1-c1ccncc1	1.91
N#Cc1cc(-c2ccncc2)cnc1NCCCCO	1.93
